# Legend:
# Dopamine, D4.4 (h) = tested on: T1, Dopamine, D4.4 (h); experiment: Radio-ligand binding assay, Dopamine D4.4; set-up: species or system human; conditions: 10 μM l-THBr
# T1 construct: Caliper Lifescience
# Description: (§1) To determine the possible targets of l-THBr action, the binding affinities of l-THBr to neurotransmitter receptors known to be involved in sedation, hypnosis and anxiety were investigated. Radio-ligand binding assays were performed by Caliper Lifescience (Hopkinton, MA, USA). The screening was carried out at a concentration of 10 μM l–THBr to test its ability to inhibit the binding of radioligands to their corresponding receptors. The results were expressed as percentage of inhibition of labeled ligand binding to individual receptors. Significant binding activity was defined as ≥50%.
# Serotonin, 5HT1D = tested on: T2, Serotonin, 5HT1D; experiment: Radio-ligand binding assay, Serotonin 5HT1D; conditions: 10 μM l-THBr; radioligand [3H]5-CT
# T2 construct: Caliper Lifescience
# Description: as §1
# Serotonin, 5HT4 = tested on: T3, Serotonin, 5HT4; experiment: Radio-ligand binding assay, Serotonin 5HT4; conditions: 10 μM l-THBr; radioligand [3H] 113808
# T3 construct: Caliper Lifescience
# Description: as §1
# Serotonin, 5HT6 (h) = tested on: T4, Serotonin, 5HT6 (h); experiment: Radio-ligand binding assay, Serotonin 5HT6; set-up: species or system human; conditions: 10 μM l-THBr; radioligand [3H]-LSD
# T4 construct: Caliper Lifescience
# Description: as §1
# Serotonin, 5HT1A (h) = tested on: T5, Serotonin, 5HT1A (h); experiment: Radio-ligand binding assay, Serotonin 5HT1A; set-up: species or system human; conditions: 10 μM l-THBr
# T5 construct: Caliper Lifescience
# Description: as §1
# male CD-1 ICR mice [1] = experiment: Light-dark box test; format: in vivo; conditions: l-THBr 1 or 5 mg/kg i.p., 30 min before test, P < 0.05 vs vehicle
# Excerpt: The light-dark box test is a sensitive model to detect activity in disorders related to anxiety, based on the innate aversion of rodents to brightly lit areas and on their spontaneous exploratory behavior in response to a novel environment. The light-dark transition box is a polypropylene animal cage (44 cm × 21 cm × 21 cm), which is divided into two compartments, a light box (illuminated by a 60 W light source with 1000 lx light intensity) and a dark box. Forty-eight male CD-1 ICR mice were placed in the light box 30 min after l–THBr or DZP injection and allowed to move freely to both boxes for 5 min. The number of transitions between the two boxes were recorded by a video camera.
# [2] = tested on: Glycline, Strychnine-sensitive; experiment: Radio-ligand binding assay, Glycine strychnine-sensitive; conditions: 10 μM l-THBr; radioligand [3H]Strchnine
# Description: as §1
# Serotonin, 5HT2A = tested on: T6, Serotonin, 5HT2A; experiment: Radio-ligand binding assay, Serotonin 5HT2A; conditions: 10 μM l-THBr; radioligand [3H]Ketanserin
# T6 construct: Caliper Lifescience
# Description: as §1
# [3] = tested on: Glutamate, MK-801 (Ionotropic); experiment: Radio-ligand binding assay, Glutamate MK-801; conditions: 10 μM l-THBr; radioligand [3H] MK-801
# Description: as §1
# [4] = tested on: T7, GABA A, BDZ, Alpha 1 site; experiment: Radio-ligand binding assay, GABA A BDZ alpha 1 site; conditions: 10 μM l-THBr; radioligand [3H]Flunitrazepam
# T7 construct: Caliper Lifescience
# Description: as §1
# [5] = tested on: T8, Glutamate, NMDA, Glycine (stry-insens Site (Ionotropic)); experiment: Radio-ligand binding assay, Glutamate NMDA glycine site; conditions: 10 μM l-THBr; radioligand [3H]-MDL-105,519
# T8 construct: Caliper Lifescience
# Description: as §1
# GABA-B = tested on: T9, GABA-B; experiment: Radio-ligand binding assay, GABA-B; conditions: 10 μM l-THBr; radioligand [3H]CGP 54626A
# T9 construct: Caliper Lifescience
# Description: as §1
# Serotonin, 5HT3 = tested on: T10, Serotonin, 5HT3; experiment: Radio-ligand binding assay, Serotonin 5HT3; conditions: 10 μM l-THBr; radioligand [3H]GR 65630
# T10 construct: Caliper Lifescience
# Description: as §1
# D1 receptor = D1 receptor (Homo sapiens, UniProt P21728); experiment: cAMP assay for D1 receptor activity in CHO cells; format: cell-based
# Excerpt: Dopamine receptors can be categorized into two classes: Gαs protein coupled receptors (D1 and D5), or Gαi protein coupled receptors (D2, D3, and D4). Activation of D1 receptors can excite adenylate cyclase activity and increase cyclic adenosine monophosphate (cAMP). cAMP assays were used to determine the agonist or antagonist properties of l-THBr at the dopamine D1 receptor.
# CHO K1 cells stably expressing D1 receptors were purchased from Genscript (Catalogue Number: M00247, Gene Number NM_000794). The cells were seeded in Ham’s F12 containing 10% fetal bovine serum and 200 μg/ml zeocin. On the day of the assay, 5 μl of cell suspension (3000 cells) was seeded on a 384-well plate. The assay was performed according to the manufacturer’s instructions. To test for agonist effects at the D1 receptor, the compounds (a known D1 agonist […] or l-THBr) were added from stocks two-fold more concentrated than the final concentration. […] After incubation (30 min at room temperature), 10 μL of HTRF reagents (cAMP-XL665 and anti-cAMP cryptate) were added. The signal was quantified after one hour of incubation at room temperature. The fluorescence intensity ratio (A665nm/A620nm x10^4) was calculated.
# male CD-1 ICR mice [6] = experiment: Locomotor activity test; format: in vivo; conditions: l-THBr 1, 5, or 10 mg/kg, i.p., 60 min
# Excerpt: The spontaneous activity video analysis system consists of 8 sound-attenuated chambers (40 cm × 40 cm × 65 cm) with a built-in infrared camera. (JL Behave, Shanghai Ji-Liang Software Technology Co., Ltd). During the behavioral tests, the experimenter was outside the testing room, and the chambers were cleaned between successive runs. Forty male CD-1 ICR mice were allowed to acclimate for three days in home cages and were handled for another three days to minimize stress after arrival in the animal facility. On the following day, after habituation to the activity chambers for 60 min, mice were administered vehicle, diazepam (DZP, 2 mg/kg, i.p.) or l–THBr (1, 5, or 10 mg/kg, i.p.) and immediately placed into the test chambers to record their locomotor activity for 60 min.
# Serotonin, 5HT7 (h) = tested on: T11, Serotonin, 5HT7 (h); experiment: Radio-ligand binding assay, Serotonin 5HT7; set-up: species or system human; conditions: 10 μM l-THBr
# T11 construct: Caliper Lifescience
# Description: as §1
# D1 receptor, sequence (P21728 whole entry): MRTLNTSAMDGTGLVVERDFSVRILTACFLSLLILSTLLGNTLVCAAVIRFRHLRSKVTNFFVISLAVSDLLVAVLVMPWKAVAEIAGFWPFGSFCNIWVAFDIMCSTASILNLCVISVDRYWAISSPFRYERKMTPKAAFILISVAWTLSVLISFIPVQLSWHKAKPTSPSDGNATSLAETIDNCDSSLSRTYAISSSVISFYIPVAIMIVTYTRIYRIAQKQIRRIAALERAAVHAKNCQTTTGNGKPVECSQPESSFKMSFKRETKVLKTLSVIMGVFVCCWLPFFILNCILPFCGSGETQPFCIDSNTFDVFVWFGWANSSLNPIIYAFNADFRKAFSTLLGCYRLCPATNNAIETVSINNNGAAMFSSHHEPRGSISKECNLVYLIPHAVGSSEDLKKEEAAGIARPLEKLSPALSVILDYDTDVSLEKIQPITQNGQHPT
structure (smiles),measurement,setting,value
"COc1ccc2c(c1O)CN1CCc3cc4c(cc3[C@@H]1C2)OCO4 [l-THBr, levo-tetrahydroberberrubine]",Activity,"Dopamine, D4.4 (h)",Yes (Significant binding affinity of l-THBr was defined as greater than 50% inhibition of ligand binding)
same,Average inhibition percentage,"Dopamine, D4.4 (h); radioligand [3H]-YM-09151-2",79.55%
same,Average inhibition percentage,"Serotonin, 5HT1D",42.28%
same,Average inhibition percentage,"Serotonin, 5HT4",32.84%
same,Average inhibition percentage,"Serotonin, 5HT6 (h)",22.79%
same,Activity,"Serotonin, 5HT1A (h)",Yes (Significant binding affinity of l-THBr was defined as greater than 50% inhibition of ligand binding)
same,Average inhibition percentage,"Serotonin, 5HT1A (h); radioligand [3H]-8-OH-DPAT",78.31%
same,number of transitions between the light/dark sides,male CD-1 ICR mice [1],increased
same,Average inhibition percentage,[2],21.26%
same,Average inhibition percentage,"Serotonin, 5HT2A",40.90%
same,Average inhibition percentage,[3],6.41%
same,Average inhibition percentage,[4],-3.30%
same,Average inhibition percentage,[5],1.79%
same,Average inhibition percentage,GABA-B,-6.94%
same,Average inhibition percentage,"Serotonin, 5HT3",23.02%
same,IC50,D1 receptor,361 nM
same,dose-dependent increase in cAMP production (agonist effect),"D1 receptor; CHO cells stably expressing the D1 receptor, agonist test",but not l-THBr induced a dose-dependent increase
same,inhibition at 10 µM,"D1 receptor; CHO, read-out: maximum inhibition of cAMP production",98.8%
same,influence on locomotor activity (travel distance),male CD-1 ICR mice [6],no influence
same,Activity,"Serotonin, 5HT7 (h)",Yes (Significant binding affinity of l-THBr was defined as greater than 50% inhibition of ligand binding)
same,Average inhibition percentage,"Serotonin, 5HT7 (h); radioligand [3H]LSD",54.82%

# Reference: publication PMC5234788 (PLoS ONE, 2017)
